From publication PMC10178421 (2023)

Key:
[1] = test system: CPG-tel26 (DNA, G4) TTAGGGTTAGGGTTAGGGTTAGGGTT; experiment: G4-CPG affinity chromatography; settings: 50 mM KCl; 10% DMSO, 10% ethanol; 60 μM compound; error ±2%
[2] = test system: CPG-ds27 (DNA, hairpin) CGCGAATTCGCGTTTCGCGAATTCGCG; experiment: G4-CPG affinity chromatography; settings: 50 mM KCl; 10% DMSO, 10% ethanol; 60 μM compound; error ±2%
[3] = test system: CPG-c-myc (DNA, G4) TGGGGAGGGTGGGGAGGGTGGGGAAGGTGGGGA; experiment: G4-CPG affinity chromatography; settings: 50 mM KCl; 10% DMSO, 10% ethanol; 60 μM compound; error ±2%
[4] = test system: tel26 (DNA, G4) TTAGGGTTAGGGTTAGGGTTAGGGTT; experiment: fluorescence titration (ligand quenching); settings: 20 mM KCl, 5 mM potassium phosphate; pH 7, 20 °C; 2 μM ligand; independent equivalent-sites fit; average over multiple binding events
[5] = test system: Pu22 (DNA, G4) TGAGGGTGGGTAGGGTGGGTAA; experiment: fluorescence titration (ligand quenching); settings: 20 mM KCl, 5 mM potassium phosphate; pH 7, 20 °C; 2 μM ligand; independent equivalent-sites fit; average over multiple binding events
[6] = test system: ds12 (DNA, duplex) CGCGAATTCGCG; experiment: fluorescence titration (ligand quenching); settings: 20 mM KCl, 5 mM potassium phosphate; pH 7, 20 °C; 2 μM ligand; independent equivalent-sites fit; average over multiple binding events
[7] = test system: Pu22 (DNA, G4) TGAGGGTGGGTAGGGTGGGTAA; experiment: CD melting (265 nm); settings: no added metal cations; 10 mM Tris-HCl, pH 7; 2 μM DNA, 20 μM ligand (10 equiv)

Bound Ligand (%) [1] [%]	Bound Ligand (%) [2] [%]	Bound Ligand (%) [3] [%]	Kb [4]	Kb [5]	Kb [6]	ΔTm [7]	SMILES
0	0	0	–	–	–	–	C=CC12C(=O)C(C)(O)C(CC1c1cc(C)cc3c1-c1ccc(O)c(C)c1CC3)C1=C2c2ccc(OC)c(C)c2CC1 (stereo not shown)
48	38	56	–	–	–	–	C=CC12C(=O)C(C)(O)C3CC1c1c4c(cc(C)c1C31CCc3c(ccc(O)c3C)C21O)CCc1c-4ccc(O)c1C (stereo not shown)
19	0	18	(2.3 ± 0.9) × 10^6 M^-1	(4.4 ± 0.7) × 10^5 M^-1	(6.0 ± 1.7) × 10^5 M^-1	–	C=CC12C3=C(CCc4c3ccc(O)c4C)C(CC1c1cc(C)cc3c1-c1ccc(O)c(C)c1CC3)C(C)(O)C2O (stereo not shown)
2	0	4	–	–	–	–	C=Cc1c(C)c(O)cc2c1-c1ccc(O)c(C)c1CC2
0	0	3	–	–	–	–	C=Cc1c(C)c(O[C@@H]2O[C@H](CO)[C@@H](O)[C@H](O)[C@H]2O)cc2c1-c1ccc(O)c(C)c1CC2
0	0	0	–	–	–	–	C=Cc1c(C)c(O[C@H]2O[C@H](CO)[C@@H](O)[C@H](O)[C@H]2O)cc2c1-c1ccc(O)c(C)c1CC2
9	2	8	–	–	–	+4 °C	Cc1c(O)cc2c3c1CCc1cc(O[C@H]4O[C@H](CO)[C@@H](O)[C@H](O)[C@H]4O)c(C)c(c1-3)CC2
